Data on seven molecules can be found in PubChem BioAssay (NCI).

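Method: 48-hour compound exposure of cells in 96-well plates, five concentrations, linear interpolation of endpoints. TGI is the concentration that stops growth completely.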

Common to all, as to assay: NCI-60 cell line screen, 48 h
Assay [1] deals with ACHN renal.
Assay [2] relates to CAKI-1 renal.
In assay [3] the test system is CCRF-CEM leukemia.
Assay [4] relates to EKVX NSCLC.
The subject of assay [5] is HCT-15 colon.
Assay [6] deals with HOP-92 NSCLC.
For assay [7], the system named is K-562 leukemia.
Assay [8] deals with LOX IMVI melanoma.
In assay [9] the test system is MDA-MB-231 breast.
Assay [10] concerns NCI/ADR-RES ovarian.
For assay [11], the system named is OVCAR-3 ovarian.
In assay [12] the test system is OVCAR-5 ovarian.
Assay [13] deals with OVCAR-8 ovarian.
Assay [14] concerns RXF 393 renal.
For assay [15], the system named is SF-539 CNS.
Assay [16] relates to SK-MEL-2 melanoma.
For assay [17], the system named is SK-OV-3 ovarian.
Assay [18] concerns T-47D breast.
Assay [19] has as its system TK-10 renal.
In assay [20] the test system is UO-31 renal.

In the case of `c1ccc2c(c1)CCN2CCc1c[nH]c2ccccc12`, the TGI in assay [1], in assay [2], in assay [3], in assay [4], in assay [5] and in assay [6] was more than 10 µM throughout. Also, the TGI in assay [7], in assay [8], in assay [9], in assay [10], in [11] and in [12] was more than 10 µM in each case. The TGI in [13], in assay [14], in assay [15], in [16], in assay [17] and in assay [18] was more than 10 µM each time. The TGI in assay [19] and in [20] was more than 10 µM in each case.

Take `O=C1C(N=Nc2ccc(-c3nc4ccccc4o3)cc2)NC(=S)N1c1ccccc1` (stereo not given): the TGI in assay [1] is more than 100 µM; in assay [2], more than 100 µM; in assay [3], 0.679 µM; in assay [4], more than 100 µM; in [5], more than 100 µM; in assay [6] it was more than 100 µM. The TGI was more than 100 µM in assay [7]; more than 100 µM in assay [8]; more than 100 µM in [9]; more than 100 µM in assay [10]; 64.3 µM in [11]; more than 100 µM in [12]. Also, the TGI in assay [13], in [14], in assay [15], in [16], in assay [17] and in assay [18] was more than 100 µM in each case. Moreover, the TGI in assay [19] and in assay [20] was more than 100 µM each time.

As for `N=c1oc2ccc(Cl)cc2cc1C(=O)Nc1ccccc1`, the TGI in assay [1], in assay [2], in [3], in [4], in assay [5] and in assay [6] was more than 100 µM in each case. Moreover, the TGI in [7], in [8], in [9], in assay [10], in assay [11] and in assay [12] was more than 100 µM each time. Also, the TGI was more than 100 µM in [13]; more than 100 µM in [14]; more than 100 µM in [15]; more than 100 µM in assay [16]; more than 70.2 µM in assay [17]; more than 44.8 µM in assay [18]. For the same molecule, the TGI in [19] and in assay [20] was more than 100 µM in each case.

In the case of `CN(C)c1ccc(/C=C/c2cc[n+](C)c3ccccc23)cc1`, the TGI in [1] was 36.5 µM; in assay [2] it was 12.2 µM; in [3], more than 61.9 µM; in [4], more than 100 µM; in assay [5], more than 100 µM; in assay [6], 7.85 µM. In addition, the TGI was more than 45.1 µM in assay [7]; 14.1 µM in assay [8]; 20.3 µM in assay [9]; more than 100 µM in assay [10]; 13.5 µM in assay [11]; 24.9 µM in assay [12]. Also, the TGI was determined as 10.1 µM in [13]; 32.8 µM in [14]; 18.7 µM in assay [15]; 6.37 µM in assay [16]; 27 µM in assay [17]; 16.6 µM in [18]. Besides, the TGI is 25.1 µM in [19] and more than 73.3 µM in assay [20].

On to `CC1CC[C@@]2(OC1)OC1C[C@H]3[C@@H]4CC[C@H]5CC(OC6OC(CO)C(OC7OC(CO)C(O)C(O)C7O)C(O)C6O)CCC5(C)[C@H]4CCC3(C)C1[C@@H]2C` (stereo not given in full), for which the TGI was 14.5 µM in [1]; 16.9 µM in assay [2]; 21.7 µM in assay [3]; 12.2 µM in assay [4]; 28.9 µM in assay [5]; 16.5 µM in assay [6]. Besides, the TGI came out at 42.6 µM in assay [7]; 12.3 µM in [8]; 17.2 µM in assay [9]; 19.9 µM in assay [10]; 14.6 µM in assay [11]; 17.2 µM in [12]. The TGI was found to be 16.7 µM in assay [13]; 19.8 µM in [14]; 16.3 µM in assay [15]; 15.3 µM in assay [16]; 18.7 µM in assay [17]; 20.4 µM in assay [18]. Moreover, the TGI in [19] amounted to 17.6 µM; in assay [20], 22.5 µM.

For the molecule `CCCCCCCC(=O)N/N=C/c1ccc(Sc2nccn2C)c([N+](=O)[O-])c1`, the TGI in [1] was found to be 75.2 µM; in [2], 72.1 µM; in [3], 17.2 µM; in assay [4], 42.8 µM; in [5] it was 29.3 µM; in [6], 15 µM. Moreover, the TGI in [7] amounted to 82.6 µM; in assay [8], 22.6 µM; in assay [9], 30.1 µM; in assay [10], 48.9 µM; in assay [11] it was 36.4 µM; in [12] it was 39.2 µM. Further, the TGI in assay [13] is 37.4 µM; in assay [14], 30.4 µM; in [15], 34 µM; in assay [16] it was 31 µM; in [17], more than 100 µM; in assay [18], 37 µM. The TGI in assay [19] turned out to be 83.2 µM; in [20], 22.7 µM.

Take `N#Cc1c2c([nH]c(=O)c1C#N)CCCC2`: the TGI in assay [1], in assay [2], in [3], in assay [4], in [5] and in assay [6] was more than 100 µM in each case. For the same molecule, the TGI in assay [7], in assay [8], in [9], in [10], in assay [11] and in assay [12] was more than 100 µM each time. In addition, the TGI in assay [13], in assay [14], in assay [15], in [16], in [17] and in assay [18] was more than 100 µM throughout. The TGI in assay [19] and in assay [20] was more than 100 µM in each case.
